According to patent publication US5925769A, “Acetylenic 1,5-diarylpyrazoles as antiinflammatory agents” (Ortho Pharmaceutical, Corp., priority 1998, dated 1999):

Columns and labels:
[1] = target: T1, CO (Rattus norvegicus, UniProt Q63921); assay: Procedure III: CO (PgD2) in intact RBL-1 cells; assay type: cell-based; settings: calcium ionophore A 23187, read-out: Proc. III CO IC50
T1 construct: the supernatant was saved as the source of enzymes; endogenous in cells; host or cells: RBL-1 (rat basophilic leukemia) cells
T1 sequence (Q63921 27-602): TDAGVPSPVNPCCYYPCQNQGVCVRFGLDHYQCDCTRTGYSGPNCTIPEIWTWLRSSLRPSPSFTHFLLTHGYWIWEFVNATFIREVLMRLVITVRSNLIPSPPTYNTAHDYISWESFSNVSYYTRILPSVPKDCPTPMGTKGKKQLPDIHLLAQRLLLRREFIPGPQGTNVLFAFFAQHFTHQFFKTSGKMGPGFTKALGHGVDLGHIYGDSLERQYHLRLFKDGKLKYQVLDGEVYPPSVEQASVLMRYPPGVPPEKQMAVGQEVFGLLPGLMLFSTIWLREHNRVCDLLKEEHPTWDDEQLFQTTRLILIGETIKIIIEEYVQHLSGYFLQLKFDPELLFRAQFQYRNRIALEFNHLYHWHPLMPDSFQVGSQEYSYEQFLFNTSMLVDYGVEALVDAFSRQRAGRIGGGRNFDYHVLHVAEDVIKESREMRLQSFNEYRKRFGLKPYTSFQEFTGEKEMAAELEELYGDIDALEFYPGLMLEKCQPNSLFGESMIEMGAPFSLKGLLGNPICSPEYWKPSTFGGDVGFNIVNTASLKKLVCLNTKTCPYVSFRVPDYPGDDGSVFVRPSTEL
Description: (§1) The IC50 was determined using a curve fit in Cricket Graph (Computer Associated), which provided the equation of the regressed line used in the calculation.
(§2) In Procedure III, the ability to inhibit 5-LO and CO in intact RBL-1 cells was also evaluated. […] Cells were collected by centrifugation, washed once in HBSS, and resuspended at a concentration of 1×10^5 cells/mL. Cells were incubated in the presence of vehicle or drug then centrifuged at 800×g for 10 minutes at 4° C. The supernatant was removed by aspiration and the cells were resuspended in 0.5 mL of HBSS. […] The conversion of AA to 5-LO products was initiated by the addition of 10 μL (50 μCi) of 1-^14 C-AA. Products were isolated by acidification and extraction, followed by thin layer chromatography analysis as described above. Radioactive areas corresponding to authentic 5-LO (5-HETE) and CO (PgD2) products were quantitated by the Bioscan 2000 Imaging System and the IC50 was calculated as above.

[2] = target: T2, Sheep seminal vesicle (SSV) cyclooxygenase (Ovis aries, UniProt P05979); assay: Procedure I: inhibition of sheep seminal vesicle (SSV) cyclooxygenase; assay type: biochemical; settings: SSV cyclooxygenase; for inhibition at 10 µM: 20 min, @ 10 .quadrature.M, read-out: Proc. I % inhibition; for IC50: read-out: Proc. I IC50
T2 construct: Sheep seminal vesicle (SSV) cyclooxygenase (95% pure); purchased Biomol (Plymouth Meeting, PA); host or cells: sheep seminal vesicle
T2 sequence (P05979 25-600): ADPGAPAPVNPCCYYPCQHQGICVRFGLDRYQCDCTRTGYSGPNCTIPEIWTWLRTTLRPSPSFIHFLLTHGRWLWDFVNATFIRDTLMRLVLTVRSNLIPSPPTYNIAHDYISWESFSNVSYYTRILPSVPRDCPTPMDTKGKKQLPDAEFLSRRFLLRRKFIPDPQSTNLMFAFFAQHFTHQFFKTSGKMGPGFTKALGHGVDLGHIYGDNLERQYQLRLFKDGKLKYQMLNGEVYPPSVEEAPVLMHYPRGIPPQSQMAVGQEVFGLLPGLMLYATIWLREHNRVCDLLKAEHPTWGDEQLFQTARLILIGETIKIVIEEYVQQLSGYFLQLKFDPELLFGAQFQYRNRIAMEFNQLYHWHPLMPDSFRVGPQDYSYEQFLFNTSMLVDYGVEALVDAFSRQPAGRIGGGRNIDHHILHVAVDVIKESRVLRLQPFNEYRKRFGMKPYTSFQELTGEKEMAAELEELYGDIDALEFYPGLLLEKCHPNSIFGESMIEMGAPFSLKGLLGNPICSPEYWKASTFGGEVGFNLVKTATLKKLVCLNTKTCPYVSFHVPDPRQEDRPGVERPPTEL
Description: Procedure I was used to determine the ability of the compounds to inhibit cyclooxygenase. […] The enzyme was divided into 200 μL aliquots, snap frozen with liquid N2, and stored at -70° C. until immediately prior to use. […] The tubes were mixed on a vortex shaker, preincubated for 5 min at 37° C. prior to the initiation of the reaction. The reaction was started by the addition of [^14 C]-arachidonic acid (1-^14 C-AA, Amersham, Arlington Heights, Ill.) in 10 μL of methanol. Tubes were again vortexed and incubated in a water bath for 20 minutes after which the tubes were removed and the reaction stopped by acidification with the addition of 1 mL 2M formic acid. Lipophilic products were extracted with 3 mL chloroform and concentrated to dryness under N2. Each pellet was reconstituted with 40 μL of chloroform and spotted on a Whatman Silicon thin-layer chromatography plate and developed in a chromatography tank containing A-9 solvent (11:5:2:1 V:V:VV, ethyl acetate:trimethyl-pentane:acetic acid:double distilled-H2 O). Radioactive cyclooxygenase products (prostaglandin D2, prostaglandin E2, etc.) were measured using a Bioscan System 200 Imaging Scanner. Inhibition of enzyme activity was calculated by comparing the areas under the curve produced in the presence or absence of test compound.

[3] = target: T1, CO; assay: Procedure II: CO activity in broken RBL-1 cells (homogenate supernatant); assay type: biochemical; settings: RBL-1 broken cell supernatant; for inhibition at 10 µM: 20 min, @ 10 .quadrature.M, read-out: Proc. II CO % inhibition; for IC50: read-out: Proc. II CO IC50
Description: (§3) Procedure II was used to assess LO and CO activity. Rat basophilic leukemia cells (RBL-1; 5×10^7 viable cells/mL) were disrupted by homogenization on ice (four 20 sec bursts) with a Brinkman polytron. […] The homogenate was then centrifuged at 9,220×g for 48 minutes at 4° C. The pellet was discarded and the supernatant was saved as the source of enzymes. The supernatant was pre-incubated for five minutes at 37° C. in the presence of 2 mM of CaCl2 and compound or vehicle (1% DMSO). The conversion of AA into products by CO and LO was initiated by adding 10 μL (50 μCi) of 1-^14 C-AA to each tube and incubated at 37° C. for 20 minutes. The reaction was stopped by adjusting the pH of each sample to 3 to 3.5 with 2M formic acid. Samples were extracted with three volumes of chloroform to isolate the products of 5-LO formed during the reaction. Fractions were dried under nitrogen, then resuspended in 40 μL of chloroform and spotted onto silica gel HL plates. The plates were developed in A-9 solvent. The dried plates were analyzed using a Bioscan Imaging TLC scanner to determine the percentage of radiolabelled AA converted to 5-HETE (LO product) in each sample. The percentage of inhibition was calculated by:
(§4) [1-(5-HETE test)]/5-HETE control×100=% inhibition
as §1

[4] = target: T3, 5-LO (Rattus norvegicus, UniProt P12527); assay: Procedure II: 5-LO activity (5-HETE) in broken RBL-1 cells (homogenate supernatant); assay type: biochemical; settings: RBL-1 broken cell supernatant; for inhibition at 10 µM: 20 min, @ 10 .quadrature.M, read-out: Proc. II 5-LO % inhibition; for IC50: read-out: Proc. II 5-LO IC50
T3 construct: the supernatant was saved as the source of enzymes; endogenous in cells; host or cells: RBL-1 (rat basophilic leukemia) cells
T3 sequence (P12527 1-673): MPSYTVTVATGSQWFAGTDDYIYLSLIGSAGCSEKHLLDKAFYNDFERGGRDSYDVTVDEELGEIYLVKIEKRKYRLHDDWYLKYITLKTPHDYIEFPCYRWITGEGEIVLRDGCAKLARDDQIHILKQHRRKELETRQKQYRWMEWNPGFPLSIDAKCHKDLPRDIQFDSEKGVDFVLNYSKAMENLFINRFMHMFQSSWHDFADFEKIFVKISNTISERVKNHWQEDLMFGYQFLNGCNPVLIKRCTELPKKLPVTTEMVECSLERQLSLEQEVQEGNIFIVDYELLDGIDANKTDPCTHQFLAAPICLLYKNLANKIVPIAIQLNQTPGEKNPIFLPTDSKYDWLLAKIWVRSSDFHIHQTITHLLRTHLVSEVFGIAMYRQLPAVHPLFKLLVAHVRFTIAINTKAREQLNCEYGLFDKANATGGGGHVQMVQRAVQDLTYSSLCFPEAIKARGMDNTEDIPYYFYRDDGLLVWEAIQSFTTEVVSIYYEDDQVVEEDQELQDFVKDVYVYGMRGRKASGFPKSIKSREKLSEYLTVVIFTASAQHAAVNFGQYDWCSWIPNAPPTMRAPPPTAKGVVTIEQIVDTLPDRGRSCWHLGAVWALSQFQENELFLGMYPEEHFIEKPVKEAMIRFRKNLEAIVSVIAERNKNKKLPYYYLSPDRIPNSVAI
Description: as §3, §4, §1

[5] = target: T3, 5-LO; assay: Procedure III: 5-LO (5-HETE) in intact RBL-1 cells; assay type: cell-based; settings: calcium ionophore A 23187, read-out: Proc. III 5-LO IC50
Description: as §1, §2

| IC50 [1] | inhibition at 10 µM [2] | inhibition at 10 µM [3] | inhibition at 10 µM [4] | IC50 [5] | IC50 [2] | IC50 [3] | IC50 [4] | Structure (SMILES) |
| --- | --- | --- | --- | --- | --- | --- | --- | --- |
| 0.28 µM | 74% | 100% | 100% | 8.8 µM | – | – | – | COC(=O)N(O)CC#Cc1cc(-c2ccc(C)cc2)n(-c2ccc(OC)cc2)n1 [Cpd 17, N-methoxycarbonyl-N-(1-(1-(4-methoxyphenyl)-5-(4-methylphenyl)pyrazol-3-yl)-1-propyn-3-yl)hydroxylamine] |
| 0.09 µM | – | – | – | 5.6 µM | 0.39 µM | 0.04 µM | 0.1 µM | COc1ccc(-n2nc(C#CC(C)N(O)C(=O)C(C)C)cc2-c2ccc(C)cc2)cc1 (stereo not shown) [Cpd 20, N-isobutyryl-N-(1-(1-(4-methoxyphenyl) -5(4-methylphenyl)pyrazol-3-yl)-1-butyn-3-yl)hydroxylamine] |
| 1.2 µM | 29% | – | – | 8.4 µM | – | 4.6 µM | 0.24 µM | COc1ccc(-n2nc(C#CC(C(C)C)N(O)C(N)=O)cc2-c2ccc(C)cc2)cc1 (stereo not shown) [Cpd 4] |
| 0.75 µM | 21% | 72% | 78% | 57.4 µM | – | – | – | CCc1ccc(-c2cc(C#CC(C)N(O)C(=O)OC)nn2-c2ccc(OC)cc2)cc1 (stereo not shown) [Cpd 34] |
| 0.19 µM | – | – | – | 23.5 µM | 0.42 µM | 0.05 µM | 1.66 µM | COc1ccc(-n2nc(C#CC(C)N(O)C(=O)C(F)(F)F)cc2-c2ccc(C)cc2)cc1 (stereo not shown) [Cpd 23, N-trifluoroacetyl-N-(1-(1-(4-methoxyphenyl)-5-(4-methylphenyl)pyrazol-3-yl)-1-butyn-3-yl)hydroxylamine] |
| 14.5 µM | 38% | 0% | 90% | 3.9 µM | – | – | – | COc1ccc(-n2nc(C#CC(C(C)C)N(O)C(N)=O)cc2-c2ccc(Cl)cc2)cc1 (stereo not shown) [Cpd 12] |
| 5.5 µM | 5% | – | – | 1.8 µM | – | 14.9 µM | 0.92 µM | COc1ccc(-n2nc(C#CC(C)N(O)C(=O)c3ccccc3)cc2-c2ccc(Cl)cc2)cc1 (stereo not shown) [Cpd 40] |
| 0.18 µM | – | 73% | 93% | 13.1 µM | 0.59 µM | – | – | CCc1ccc(-c2cc(C#CC(C)N(O)C(=O)C(C)C)nn2-c2ccc(OC)cc2)cc1 (stereo not shown) [Cpd 30, N-isobutyryl-N-(1-(5-(4-ethylphenyl)-1-(4-methoxyphenyl)pyrazol-3-yl)-1-butyn-3-yl)hydroxylamine] |
| 14 µM | 3% | 52% | 97% | 5.1 µM | – | – | – | CCOC(=O)CCC(=O)N(O)C(C)C#Cc1cc(-c2ccc(CC)cc2)n(-c2ccc(OC)cc2)n1 (stereo not shown) [Cpd 32] |
| 6.2 µM | – | 0% | – | 3.5 µM | 32 µM | – | 0.01 µM | COc1ccc(-n2nc(C#CC(C)N(O)C(N)=O)cc2-c2ccc(Cl)cc2)cc1 (stereo not shown) [Cpd 6] |
| 0.34 µM | – | – | – | 11.9 µM | 2.51 µM | 0.06 µM | 0.27 µM | CCc1ccc(-c2cc(C#CC(C)N(O)C(C)=O)nn2-c2ccc(OC)cc2)cc1 (stereo not shown) [Cpd 29, N-acetyl-N-(1-(5-(4-ethylphenyl)-1-(4-methoxyphenyl)pyrazol-3-yl)-1-butyn-3-yl)hydroxylamine] |
| 0.29 µM | – | 84% | 77% | 8.7 µM | 1.62 µM | – | – | COC(=O)N(O)C(C)C#Cc1cc(-c2ccc(Cl)cc2)n(-c2ccc(OC)cc2)n1 (stereo not shown) [Cpd 41, N-methoxycarbony-N-(1-(5-(4-chlorophenyl)-1-(4-methoxyphenyl)pyrazol-3-yl)-1-butyn-3-yl)hydroxylamine] |
| 10 µM | – | 100% | 97% | 10.1 µM | 2.93 µM | – | – | CCOC(=O)CCC(=O)N(O)C(C)C#Cc1cc(-c2ccc(C)cc2)n(-c2ccc(OC)cc2)n1 (stereo not shown) [Cpd 22] |
| 11.5 µM | – | 54% | 88% | 25.4 µM | 6 µM | – | – | COc1ccc(-n2nc(C#CC(C)N(O)C(=O)c3cccnc3)cc2-c2ccc(C)cc2)cc1 (stereo not shown) [Cpd 26] |
